The text below walks through data of publication PMC4550478, “Metronidazole-triazole conjugates: Activity against Clostridium difficile and parasites” (European Journal of Medicinal Chemistry, 2015).

For test [1], the system named is H. pylori clinical isolate 98/285. Briefly: Metronidazole E-test, H. pylori 98/285. The test is classed as cell-based. Particulars: Helicobacter pylori. As for the experimental part: Helicobacter pylori strains, with a range of resistance levels to metronidazole (256 µg/ml, 64 µg/ml, 24 µg/ml, 2 µg/ml, and 0.04 µg/ml), were selected and obtained from Helicobacter Research Laboratory, University of Western Australia. The resistance strength to metronidazole was recorded according to eTest (bioMérieux). H. pylori strain 26695 was used as the control. H. pylori was maintained on the non-selective Columbia blood agar plates (CBA) (Columbia agar base Oxoid) with 5% horse blood and incubated at 37 °C and 10% CO2 for 48 hrs. […] Each of the H. pylori strains were harvested, OD600 calibrated to 0.3, and spotted in triplicate on CBA pre-mixed with the compound. The lowest concentration of antibiotic showing no growth was read as the MIC. The experiment was performed in duplicate.

For test [2], the system named is 8 additional drug resistant S. aureus strains, vancomycin resistant E. faecalis, vancomycin resistant E. faecium and multidrug resistant S. pneumoniae. Briefly: MIC broth microdilution, drug resistant Gram-positive panel. Particulars: all strains of the panel. The class given is cell-based. As for the experimental part:
All compounds were tested for activity against a set of anaerobic C. difficile bacteria (630 ATCC BAA-1382, NAP1/027 M7404, NAP1/027 ATCC BAA-1803, VPI10463 ATCC 43255, CD26A54_S and CD26A54_R) and representative ESKAPE pathogens S. aureus (MRSA ATCC 43300), E. coli (ATCC 25922), K. pneumoniae (ATCC 700603), A. baumannii (ATCC 19606) and P. aeruginosa (ATCC 27853) using a standard broth microdilution assay. Selected compounds were tested for activity against H. pylori strains (26695, and clinical isolates MtzS 13/25, MtzR 98/285 and MtzR 13/61) using agar plate dilution, and for antimicrobial activity against […] Gram-positive bacterial strains: Enterococcus faecalis (VanA clinical isolate), Enterococcus faecium (MDR VanA ATCC 51559), Streptococcus pneumoniae (MDR ATCC 700677), S. aureus (MRSA ATCC 43300, MRSA clinical isolate, MRSA/DRSA clinical isolate, GISA NARSA NRS 1, GISA NARSA NRS 17, VRSA NARSA VRS1, VRSA NARSA VRS4 and VRSA NARSA VRS10) using broth microdilution. C. difficile strains were grown at 37 °C in a COY anaerobic chamber (5% H2, 10% CO2, 85% N2). H. pylori strains were grown at 37 °C under a microaerobic atmosphere (5% O2, 10% CO2). All facultative anaerobic bacteria were grown at 37 °C with normal atmospheric oxygen levels. All experiments were performed in duplicate with metronidazole, vancomycin, linezolid or colistin as positive controls for relevant strains (see Table 1). Positive growth control of bacteria and DMSO as well as a negative control of only media were included for every plate. Full assay details are provided in the supplementary information.
MICs were determined by a two-fold serial broth micro dilution according to the recommendation of CLSI standards with an inoculum of 5 × 10^5 CFU/mL^4 The compounds along with standard antibiotics were serially diluted twofold across the wells of 96-well non-binding surface plates (NBS, Corning). Standards ranged from 64 to 0.03 μg/mL, and the compounds from 128 to 0.06 μg/mL with final volumes of 50 μL per well. Gram-positive and Gram-negative bacteria were cultured in Mueller Hinton broth (MHB) (Bacto laboratories, Cat. no. 211443) at 37 °C overnight. A sample of each culture was then diluted 40-fold in fresh MHB broth and incubated at 37 °C for 2-3 h. The resultant mid-log phase cultures were diluted to the final concentration of 5 × 10^5 CFU/mL, then 50 μL was added to each well of the compound containing 96-well plates. All the plates were covered and incubated at 37 °C for 24 h.

≈ marks a conversion by molar mass, not a printed value. Some results are limits rather than exact numbers.

`Cc1ncc([N+](=O)[O-])n1CCO` [Compound 1, metronidazole]: 24 µg/mL (≈ 140 µM) was the least that counted as inhibitory in test [1] (MIC).
Turning to `Cc1ncc([N+](=O)[O-])n1CCN=[N+]=[N-]` [Compound 3, 1-(2-azidoethyl)-2-methyl-5-nitro-1H-imidazole], the “MIC against panel of drug resistant Gram-positive strains” value in test [2] is greater than 64 µg/mL.
